Assay results published in patent US8389551B2, “Optical enantiomers of phenyramidol and process for chiral synthesis” (Fermenta Biotech (UK) Limited, priority 2006, dated 2013).
Marks after values point to notes of the source that are not given here.

What was measured:
swiss albino mice [1] = assay: Skeletal muscle relaxant activity, Rota rod, second experiment (racemic, S isomer, R isomer); assay type: in vivo; conditions: confirmed by a Rota-rod method
Description: The evaluation of skeletal muscle relaxant activity of the formulations containing phenyramidol racemic, dextro and laevo isomers of oxalate salts in swiss albino mice were carried out using Rota rod apparatus. Each animal was trained only once per day for 5 days. […] Mouse was placed on rota rod only when it achieved the speed of 25 rpm. The ‘fall off time’ in seconds was noted down when the mouse falls from rotating rod. Endurance time was measured up to 120 seconds. The skeletal muscle relaxant activity was assessed using 0 hr, 1 hr, 2 hrs, 4 hrs and 6 hrs time points after the dose administration. A total of 100 mice were selected and randomly distributed into ten main groups with 10 animals per group.
Two efficacy variables were assessed during the experiment: 1. Percent animal falling from the rod was noted; 2. Endurance Time (ET): The time taken for a mouse to fall from the rod was taken as endurance time. The endurance time was taken up to 120 sec and treatment group ET was compared to normal control. These efficacy variables were assessed at five time points 0 hr, 1 hr, 2 hr, 4 hr, and 6 hr for each and every animal.
In another experiment, the studies have been extended to confirm the isomer which is having more skeletal muscle relaxant activity. Control group (R1) receiving only vehicle (water for injection) served as a placebo in the study. […]

swiss albino mice [2] = assay: Analgesic activity, acetic acid induced writhing method; assay type: in vivo
Description: The objective of the study was to evaluate the analgesic activity of the tested formulations of the compounds of the present invention. The test was conducted in Swiss albino mice using acetic acid induced writhing method. A total of 78 pre-screened mice (showing writhing response within 10 minutes*) were divided into 6 groups of 13 animals (6 males+7 females) each. The animals showing no writhing response within 10 mins were excluded. Diclofenac and pentazocine were used as positive controls. The formulations were given orally to the different groups of animals and the number of writhes counted for a period of 15 minutes, after the onset of writhes. If the onset of writhes occurred 30 after 10 minutes the number of writhes was recorded as V. The time of onset of writhes was recorded for each animal.
The control group received 1% gum acacia. The Groups 2, 3, and 4 received the formulations viz: Phen 2; Phen 3 and Phen 4 respectively. Diclofenac and pentazocine were used as positive control and given to groups 5 and 6 respectively. Diclofenac, a potent analgesic & anti-inflammatory agent; and 5 pentazocine an opoid analgesic were selected for comparative evaluation of test formulations. Both these drugs were administered to different groups of animals at the dose of 2 mg/kg. The group 1 (Phen 1) served as—Ve Control group in the study. Phen 5 (Diclofenac—2 mg/kg) and Positive Control: Phen 6 (Pentazocine 2 mg/kg) served as positive controls.
Human daily dose of 2400 mg (800 mg×3 times) was extrapolated to mice for Phen3 and human daily dose of 1200 mg (400 mg×3 times) was extrapolated to mice for Phen2 and Phen 4. The numbers of writhes observed are given below in Table 4 for each formulation.
Further, the evaluation of analgesic activity was carried out using variable dosage forms with different groups. A total of 100 animals (50 males+50 females) were selected randomly and distributed into ten main groups with 10 animals per group (5 M+5 F). Human daily dose of 2400 mg (800 mg×3 times) was extrapolated to mice for Phen 3 (Phenyramidol Racemic (Hydrochloride) and human daily dose of 1200 mg (400 mg×3 times), 1800 mg (400 mg×4.5 times), 2000 mg (400 mg×5 times) & 2400 mg (400 mg×6 times) was extrapolated to mice for Phen2 and Phen4 groups.
The control group 1 received 1% gum acacia and served as negative control group. Groups 2, 3, 4 & 5 received the formulation Phen2. Groups 6, 7, 8 & 9 received the formulation Phen 4 (Isomer 2) & Group 10 received the formulation Phen 3 (Racemic).
Further, one more experiment was done with phenyramidol hydrochloride to evaluate the analgesic activity at lesser dosage levels using acetic acid induced method. A total of 50 animals (25 males+25 females) were selected and randomly distributed into five main groups with 10 animals per group (5 M+5 F). 5 Human daily dose of 600 mg (400×1.5 times) & 1200 mg (800 mg×1.5 times) was extrapolated to mice for Phen 3 (Racemic) and human daily dose of 600 mg (400 mg×1.5 times) was extrapolated to mice for (−) Phenyramidol Hydrochloride & (+) Phenyramidol Hydrochloride and the results are discussed in Table 6.

## Cl.O[C@H](CNc1ccccn1)c1ccccc1 [(+) Phenyramidol Hydrochloride, (S)-Phenyramidol Hydrochloride Salt]
Swiss albino mice [1]
  skeletal muscle relaxant activity (summary statement): enhanced skeletal muscle relaxant activity
Swiss albino mice [2]; Table 6, dose 600 mg (human daily dose extrapolated to mice), mean ± SD, n = 10
  Average no. of writhes: 5.00 ± 4.64*
Swiss albino mice [2]; experiment of Table 6, lesser dosage levels
  analgesic activity by decrease in the number of writhes induced by acetic acid: significant analgesic activity
